According to paper PMC9966667, “Permeability Assessment of a High-Throughput Mucosal Platform” (Pharmaceutics, 2023):

What was measured:
mucins = test system: mucins; parameters: method as in PMID 26169405, PMID 7535039, PMID 33405639; conditions: polycationic drugs; cited from earlier work
[1] = PermeaPad 96-well plate permeability assay (absence of mucus); format: in vitro ADME; conditions: for Papp at 5 h: not told, pH 7.4, PermeaPad without mucus
Experimental: (§1) The permeability assay was conducted in the absence (i.e., PermeaPad) and presence (i.e., PermeaPad + mucus) of the pathological mucus model. Stock solutions of drugs were prepared at 10 mg/mL in DMSO; working solutions were prepared by diluting the stocks within soluble concentration ranges (either 100 or 500 µM) in a 10 mM phosphate buffer (PB) (pH 7.4, 5% DMSO). The donor compartments of the PermeaPad plate were then filled with 200 µL of the drug working solution, while the acceptor compartments were filled with 400 µL of PB buffer (5% DMSO). […] (1) Papp=dQ/dt/C0×A where dQ represents the quantity of drug expressed as moles permeated into the acceptor compartment at time t (18.000 s), C0 is the initial concentration in the donor compartment, and A is the area of the PermeaPad membrane (0.15 cm^2).
(§2) The concentration of the drug in each acceptor well was determined using a Varian HPLC equipped with a 410 autosampler and a C18 column (150 × 2 mm, […], 100) and detected on a Varian 320 MS TQ mass spectrometer equipped with an electrospray ionization (ESI) source operating in positive or negative mode. The detector was used in multiple-reaction monitoring (MRM). Mobile phases composed of acetonitrile and water, 0.1% formic acid, or ammonium acetate (5 mM, pH 6.6), were pumped at 200 µL/min, following a gradient program. The injection volume was 5 µL. Quantifications were achieved according to a seven-point calibration curve specific to each compound.
(§3) A minimum of three replicates were performed for each compound, with and without mucus. All the quantitative data are reported as the mean ± standard deviation (SD). Statistical significance was calculated by applying the Student’s t test; a p < 0.05 was considered to be statistically significant and is indicated with asterisks (i.e., * p < 0.05, ** p < 0.01, *** p < 0.001, **** p < 0.0001).

[2] = PermeaPad + mucus permeability assay (cystic fibrosis mucus model on PermeaPad 96-well plate); format: in vitro ADME; conditions: for Effect of mucus on Papp: Papp vs. Papp mucus, significance at p < 0.05; for Effect of mucus on Papp / statistical significance of the difference in permeation with vs without mucus: Student's t-test; for Papp at 5 h: not told, PermeaPad + mucus model, donor 100 or 500 µM in 10 mM PB pH 7.4, 5% DMSO, single timepoint 5 h, mean (±SD), n>=3, read-out: Papp mucus ± SD • 10^6; for permeation in the presence of mucus versus without mucus: PermeaPad + mucus vs PermeaPad; for statistical significance of the difference in permeation with vs without mucus: p < 0.05
Experimental: The pathological mucus model produced by Bac3Gel Lda. was prepared as previously described. […] The mucin suspension was prepared in mQ water.
Next, 20 µL of the mucus mixture was pipetted into the donor compartment of the PermeaPad plate (i.e., PermeaPad + mucus, from here on). The donor plate was carefully shaken to homogeneously distribute the mucus over the entire surface of the well. This step is also useful to get rid of the air bubbles that can form during the mixing of the mucus reagents. Before running the permeation measurements, the mucus was allowed to crosslink overnight by storing the PermeaPad plate at 4 °C.
as §1, §2, §3

[3] = donor 100 or 500 µM in 10 mM PB pH 7.4, 5% DMSO, single timepoint 5 h, mean (±SD), n>=3, read-out: Papp ± SD • 10^6
[4] = 5 h, extremes of measured range, trametinib value set because below limit of detection, read-out: apparent permeability (Papp)

Compound | Papp at 5 h [1, 3] | Effect of mucus on Papp [2] | Papp at 5 h [2] | Papp at 5 h [1, 4] | statistical significance of the difference in permeation with vs without mucus [2] | concentration in the acceptor compartment ([1]; PermeaPad, 5 h, HPLC-ESI-MS) | interaction with mucins (mucins) | permeation in the presence of mucus versus without mucus [2]
NC[C@H]1O[C@H](O[C@H]2[C@H](O)[C@@H](O[C@H]3O[C@H](CO)[C@@H](O)[C@H](N)[C@H]3O)[C@H](N)C[C@@H]2N)[C@H](N)C[C@@H]1O [tobramycin] | – | – | – | – | – | – | strongly interact with mucins | –
CO[C@H]1/C=C/O[C@@]2(C)Oc3c(C)c(O)c4c(O)c(c5c(nc6cc(C)ccn65)c4c3C2=O)NC(=O)/C(C)=C\C=C\[C@H](C)[C@H](O)[C@@H](C)[C@@H](O)[C@@H](C)[C@H](OC(C)=O)[C@@H]1C [Rifaximin] | 0.09 ×10⁻⁶ cm/s | None | 0.08 ×10⁻⁶ cm/s | – | – | – | – | –
CC(C(=O)O)c1cccc(C(=O)c2ccccc2)c1 (centres unmarked) [Ketoprofen] | – | – | – | – | – | – | – | higher permeation in the presence of mucus
Nc1nc2c(ncn2COCCO)c(=O)[nH]1 [Acyclovir] | 2.17 ×10⁻⁶ cm/s | Reduced | 0.83 ×10⁻⁶ cm/s | – | – | – | – | –
CCn1cc(C(=O)O)c(=O)c2cc(F)c(N3CCNCC3)cc21 [Norfloxacin] | 1.7 ×10⁻⁶ cm/s | None | 1.61 ×10⁻⁶ cm/s | – | – | – | – | –
C[C@H]1[C@H](NC(=O)/C(=N\OC(C)(C)C(=O)O)c2csc(N)n2)C(=O)N1S(=O)(=O)O [Aztreonam] | 0.18 ×10⁻⁶ cm/s | None | 0.17 ×10⁻⁶ cm/s | – | – | – | – | –
polymyxin | – | – | – | – | – | – | strongly interact with mucins | –
colistin | – | – | – | – | – | – | strongly interact with mucins | –
NC(=O)c1nc(F)c[nH]c1=O [Favipiravir] | 5.15 ×10⁻⁶ cm/s | Increased | 6.18 ×10⁻⁶ cm/s | – | – | – | – | higher permeation in the presence of mucus
CN(C)[C@@H]1C(O)=C(C(N)=O)C(=O)[C@@]2(O)C(O)=C3C(=O)c4c(O)cccc4[C@@](C)(O)[C@H]3C[C@@H]12 [Tetracycline] | – | Reduced | 0.2 ×10⁻⁶ cm/s | – | – | – | – | –
CO[C@H]1/C=C/O[C@@]2(C)Oc3c(C)c(O)c4c(O)c(c(/C=N/N5CCN(C)CC5)c(O)c4c3C2=O)NC(=O)/C(C)=C\C=C\[C@H](C)[C@H](O)[C@@H](C)[C@@H](O)[C@@H](C)[C@H](OC(C)=O)[C@@H]1C [Rifampicin] | 0.7 ×10⁻⁶ cm/s | None | 0.71 ×10⁻⁶ cm/s | – | – | – | – | –
CCS(=O)(=O)N1CC(CC#N)(n2cc(-c3ncnc4[nH]ccc34)cn2)C1 [Baricitinib] | 3.06 ×10⁻⁶ cm/s | Reduced | 0.87 ×10⁻⁶ cm/s | – | – | – | – | –

More lines, main results first:

Papp at 5 h [1, 3] | Effect of mucus on Papp [2] | Papp at 5 h [2] | Papp at 5 h [1, 4] | statistical significance of the difference in permeation with vs without mucus [2] | concentration in the acceptor compartment ([1]; PermeaPad, 5 h, HPLC-ESI-MS) | Compound | interaction with mucins (mucins) | permeation in the presence of mucus versus without mucus [2]
0.19 ×10⁻⁶ cm/s | None | 0.13 ×10⁻⁶ cm/s | – | – | – | COC(=O)N[C@H](C(=O)N[C@@H](Cc1ccccc1)[C@@H](O)CN(Cc1ccc(-c2ccccn2)cc1)NC(=O)[C@@H](NC(=O)OC)C(C)(C)C)C(C)(C)C [Atazanavir] | – | –
4.55 ×10⁻⁶ cm/s | Reduced | 1.77 ×10⁻⁶ cm/s | – | – | – | CC(=O)Nc1ccc(O)cc1 [Acetaminophen] | – | –
0.01 ×10⁻⁶ cm/s | None | – | 0.0079 ×10⁻⁶ cm/s | – | – | O=C(Nc1c(Cl)cncc1Cl)c1ccc(OC(F)F)c(OCC2CC2)c1 [Roflumilast] | – | –
0.94 ×10⁻⁶ cm/s | None | 1.2 ×10⁻⁶ cm/s | – | not statistically significant | – | CC(C)Cc1ccc(C(C)C(=O)O)cc1 (centres unmarked) [Ibuprofen] | – | higher permeation in the presence of mucus
0.66 ×10⁻⁶ cm/s | None | 0.35 ×10⁻⁶ cm/s | – | – | – | CCOC(=O)C1=C(COCCN)NC(C)=C(C(=O)OC)C1c1ccccc1Cl (centres unmarked) [Amlodipine] | – | –
4.26 ×10⁻⁶ cm/s | Reduced | 1.08 ×10⁻⁶ cm/s | – | – | – | CC(C)NCC(O)COc1cccc2ccccc12 (centres unmarked) [Propranolol] | – | –
1.81 ×10⁻⁶ cm/s | Reduced | 1.11 ×10⁻⁶ cm/s | – | – | – | CC(CCc1ccccc1)NCC(O)c1ccc(O)c(C(N)=O)c1 (centres unmarked) [Labetalol] | – | –
2.71 ×10⁻⁶ cm/s | None | 4.89 ×10⁻⁶ cm/s | – | not statistically significant | – | O=C(O)c1ccccc1O [Salicylic acid] | – | higher permeation in the presence of mucus
2.16 ×10⁻⁶ cm/s | Reduced | 0.81 ×10⁻⁶ cm/s | – | – | – | CN(C)C(=O)COC(=O)Cc1ccc(OC(=O)c2ccc(NC(=N)N)cc2)cc1 [Camostat] | – | –
2.67 ×10⁻⁶ cm/s | Reduced | 0.6 ×10⁻⁶ cm/s | – | – | – | CCN(CC)CCOC(=O)c1ccc(N)cc1 [Procaine] | – | –
0.48 ×10⁻⁶ cm/s | None | 0.21 ×10⁻⁶ cm/s | – | – | – | C=CC(=O)N1CCN(c2nc(=O)n(-c3c(C)ccnc3C(C)C)c3nc(-c4c(O)cccc4F)c(F)cc23)[C@@H](C)C1 [Sotorasib] | – | –
2.34 ×10⁻⁶ cm/s | Reduced | 0.64 ×10⁻⁶ cm/s | – | – | – | CC(C)(C)NCC(O)c1ccc(O)c(CO)c1 (centres unmarked) [Salbutamol] | – | –
0.08 ×10⁻⁶ cm/s | Reduced | 0.01 ×10⁻⁶ cm/s | – | – | – | CC(C)(C)NC(=O)[C@@H]1C[C@@H]2CCCC[C@@H]2CN1C[C@@H](O)[C@H](Cc1ccccc1)NC(=O)[C@H](CC(N)=O)NC(=O)c1ccc2ccccc2n1 [Saquinavir] | – | –
– | None | – | 0.001 ×10⁻⁶ cm/s | – | below the limit of detection | CC(=O)Nc1cccc(-n2c(=O)n(C3CC3)c(=O)c3c(Nc4ccc(I)cc4F)n(C)c(=O)c(C)c32)c1 [Trametinib] | – | –
